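Values below derive from 48-hour exposures of cells grown in 96-well plates, with endpoints linearly interpolated between the two concentrations bracketing the appropriate inhibition level. Here, GI50 denotes the concentration required for 50% inhibition of growth.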 Active and inactive are the calls of the source. No stated cut-off is given here; in the data, active = GI50 up to about 1.1 µM and inactive = higher.
Tests used:
Test in all cases: DTP human tumour cell line panel, 48 h
786-0 = test system: 786-0
A498 = test system: A498
A549 = test system: A549
ACHN = test system: ACHN
BT-549 = test system: BT-549
CAKI-1 = test system: CAKI-1
CCRF-CEM = test system: CCRF-CEM
COLO 205 = test system: COLO 205
DU-145 = test system: DU-145
EKVX = test system: EKVX
HCT-116 = test system: HCT-116
HCT-15 = test system: HCT-15
HL-60 = test system: HL-60
HOP-62 = test system: HOP-62
HT-29 = test system: HT-29
Hs-578T = test system: Hs-578T
IGROV-1 = test system: IGROV-1
K562 = test system: K562
KM12 = test system: KM12
LOX IMVI = test system: LOX IMVI
M14 = test system: M14
MCF7 = test system: MCF7
MDA-MB-231 = test system: MDA-MB-231
MDA-MB-435 = test system: MDA-MB-435
MDA-N = test system: MDA-N
MOLT-4 = test system: MOLT-4
Malme-3M = test system: Malme-3M
NCI-H226 = test system: NCI-H226
NCI-H23 = test system: NCI-H23
NCI-H522 = test system: NCI-H522
NCI/ADR-RES = test system: NCI/ADR-RES
OVCAR-5 = test system: OVCAR-5
OVCAR-8 = test system: OVCAR-8
PC-3 = test system: PC-3
RPMI-8226 = test system: RPMI-8226
RXF 393 = test system: RXF 393
SF-268 = test system: SF-268
SF-295 = test system: SF-295
SF-539 = test system: SF-539
SK-MEL-28 = test system: SK-MEL-28
SK-MEL-2 = test system: SK-MEL-2
SK-MEL-5 = test system: SK-MEL-5
SK-OV-3 = test system: SK-OV-3
SN12C = test system: SN12C
SNB-19 = test system: SNB-19
SNB-75 = test system: SNB-75
SR = test system: SR
SW-620 = test system: SW-620
T47D = test system: T47D
TK-10 = test system: TK-10
U-251 = test system: U-251
UACC-257 = test system: UACC-257
UACC-62 = test system: UACC-62
UO-31 = test system: UO-31
HCC 2998 = test system: HCC 2998
HOP-92 = test system: HOP-92
NCI-H460 = test system: NCI-H460
OVCAR-3 = test system: OVCAR-3
OVCAR-4 = test system: OVCAR-4

COc1cc(C(=O)CBr)c(OC)cc1C
GI50 (786-0): > 100 µM (inactive)
GI50 (A498): 84.7 µM (inactive)
GI50 (A549): > 100 µM (inactive)
GI50 (ACHN): > 100 µM (inactive)
GI50 (BT-549): 36.2 µM (inactive)
GI50 (CAKI-1): > 100 µM (inactive)
GI50 (CCRF-CEM): > 100 µM (inactive)
GI50 (COLO 205): > 100 µM (inactive)
GI50 (DU-145): > 100 µM (inactive)
GI50 (EKVX): > 100 µM (inactive)
GI50 (HCT-116): > 100 µM (inactive)
GI50 (HCT-15): > 100 µM
GI50 (HL-60): > 100 µM (inactive)
GI50 (HOP-62): > 100 µM (inactive)
GI50 (HT-29): > 100 µM (inactive)
GI50 (Hs-578T): 72.4 µM (inactive)
GI50 (IGROV-1): > 100 µM (inactive)
GI50 (K562): > 100 µM (inactive)
GI50 (KM12): > 100 µM (inactive)
GI50 (LOX IMVI): > 100 µM (inactive)
GI50 (M14): > 100 µM (inactive)
GI50 (MCF7): > 100 µM (inactive)
GI50 (MDA-MB-231): > 100 µM (inactive)
GI50 (MDA-MB-435): > 100 µM (inactive)
GI50 (MDA-N): > 100 µM (inactive)
GI50 (MOLT-4): > 100 µM (inactive)
GI50 (Malme-3M): > 100 µM (inactive)
GI50 (NCI-H226): 75.5 µM (inactive)
GI50 (NCI-H23): > 100 µM (inactive)
GI50 (NCI-H522): > 100 µM (inactive)
GI50 (NCI/ADR-RES): > 100 µM (inactive)
GI50 (OVCAR-5): > 100 µM (inactive)
GI50 (OVCAR-8): > 100 µM (inactive)
GI50 (PC-3): > 100 µM (inactive)
GI50 (RPMI-8226): > 100 µM (inactive)
GI50 (RXF 393): > 100 µM (inactive)
GI50 (SF-268): > 100 µM (inactive)
GI50 (SF-295): > 100 µM (inactive)
GI50 (SF-539): > 100 µM (inactive)
GI50 (SK-MEL-28): > 100 µM (inactive)
GI50 (SK-MEL-2): > 100 µM (inactive)
GI50 (SK-MEL-5): 52.7 µM (inactive)
GI50 (SK-OV-3): > 100 µM (inactive)
GI50 (SN12C): > 100 µM (inactive)
GI50 (SNB-19): > 100 µM (inactive)
GI50 (SNB-75): > 10 µM (inactive)
GI50 (SR): > 100 µM (inactive)
GI50 (SW-620): > 100 µM (inactive)
GI50 (T47D): > 100 µM (inactive)
GI50 (TK-10): > 100 µM (inactive)
GI50 (U-251): > 100 µM (inactive)
GI50 (UACC-257): > 100 µM (inactive)
GI50 (UACC-62): 85.7 µM (inactive)
GI50 (UO-31): 97.3 µM (inactive)

CC1CNC(c2ccc3c(c2)Cc2cc(C4=NC(C)CN4)ccc2-3)=N1 (stereo unspecified)
GI50 (786-0): 54.3 µM (inactive)
GI50 (A498): > 100 µM (inactive)
GI50 (A549): > 100 µM (inactive)
GI50 (ACHN): > 100 µM (inactive)
GI50 (BT-549): > 100 µM (inactive)
GI50 (CAKI-1): > 100 µM (inactive)
GI50 (CCRF-CEM): > 100 µM (inactive)
GI50 (COLO 205): 54 µM (inactive)
GI50 (DU-145): 65.8 µM (inactive)
GI50 (EKVX): > 100 µM (inactive)
GI50 (HCC 2998): 18.2 µM (inactive)
GI50 (HCT-116): 31.3 µM (inactive)
GI50 (HCT-15): > 100 µM
GI50 (HOP-62): 41 µM (inactive)
GI50 (HOP-92): > 100 µM (inactive)
GI50 (HT-29): 61.2 µM (inactive)
GI50 (Hs-578T): 38.1 µM (inactive)
GI50 (IGROV-1): > 100 µM (inactive)
GI50 (K562): 34.4 µM (inactive)
GI50 (KM12): 20.3 µM (inactive)
GI50 (LOX IMVI): 47.2 µM (inactive)
GI50 (M14): 40.2 µM (inactive)
GI50 (MCF7): 17.7 µM (inactive)
GI50 (MDA-MB-231): 33.6 µM (inactive)
GI50 (MDA-MB-435): 25.8 µM (inactive)
GI50 (MDA-N): 34.8 µM (inactive)
GI50 (MOLT-4): 37.8 µM (inactive)
GI50 (Malme-3M): 19.2 µM (inactive)
GI50 (NCI-H226): 55.7 µM (inactive)
GI50 (NCI-H23): 37.2 µM (inactive)
GI50 (NCI-H460): 26.6 µM (inactive)
GI50 (NCI-H522): 22.2 µM (inactive)
GI50 (NCI/ADR-RES): > 100 µM (inactive)
GI50 (OVCAR-3): 20.8 µM (inactive)
GI50 (OVCAR-4): 19.1 µM (inactive)
GI50 (OVCAR-5): > 100 µM (inactive)
GI50 (OVCAR-8): 37.2 µM (inactive)
GI50 (PC-3): 43.8 µM (inactive)
GI50 (RPMI-8226): 36.6 µM (inactive)
GI50 (RXF 393): > 100 µM (inactive)
GI50 (SF-268): 26.1 µM (inactive)
GI50 (SF-295): 71.9 µM (inactive)
GI50 (SK-MEL-28): 87.1 µM (inactive)
GI50 (SK-MEL-2): 23.2 µM (inactive)
GI50 (SK-MEL-5): 71.8 µM (inactive)
GI50 (SK-OV-3): 37.9 µM (inactive)
GI50 (SN12C): 48.1 µM (inactive)
GI50 (SNB-19): 36.6 µM (inactive)
GI50 (SNB-75): 54.2 µM (inactive)
GI50 (SR): 42.9 µM (inactive)
GI50 (SW-620): 56.1 µM (inactive)
GI50 (T47D): 35.6 µM (inactive)
GI50 (TK-10): > 100 µM (inactive)
GI50 (U-251): 19.4 µM (inactive)
GI50 (UACC-257): 32.6 µM (inactive)
GI50 (UACC-62): 28.6 µM (inactive)
GI50 (UO-31): > 100 µM (inactive)
